Measurements from PubChem BioAssay AID1918939 (Molecular Pharmacology Branch, DTP, NCI, 2023).

System: 653999-131-R-J2-PDC complex spheroid viability
Test: Anticancer human tumor 653999-131-R-J2-PDC patient-derived lung adenocarcinoma cell line growth inhibition
Details: for IC50: curve of first compound; for viability, T/C: stronger effect = lower value
Source text: Multicellular complex tumor spheroid response to LSD1 Inhibitor Iadademstat in combination with a variety of drugs and investigational agents in selected tumor cell lines
The current study was undertaken to assess response to LSD1 inhibitors in combination with standard-of-care drugs and investigational agents in solid tumor complex spheroid models as well as in the K-562 leukemia. Complex spheroids include a stromal component modeled by human endothelial cells (HUVEC) and fibroblasts modeled by human mesenchymal stem cells (MSCs). The concentration ranges selected for each drug and investigational agent were based upon clinically achievable concentrations if the clinical Cmax of the agent was known.
Compounds. The drugs and investigational agents used in this study are listed on Table 1. All of the agents used, including staurosporine (NSC755774) and gemcitabine (NSC613327), were obtained from the Developmental Therapeutics Program, NCI. FDA-approved anticancer drugs are available from the NCI at http://dtp.nci.nih.gov/branches/dscb/oncology_drugset_explanation.html. Drugs and investigational agents were >95% pure by proton nuclear magnetic resonance (NMR) and liquid chromatography/mass spectrometry (LC/MS). Stock solutions were prepared at 400x in DMSO, stored at -70 degrees C, and diluted in fresh medium prior to their use. The final concentration of DMSO in cell culture wells never exceeded 0.25% (v/v). The FDA-approved anticancer drug set is available from the Developmental Therapeutics Program at https://dtp.cancer.gov/organization/dscb/obtaining/available_plates.htm. All drugs and investigational agents were tested over a range starting from a high concentration at or near the clinical Cmax and decreasing in half-log increments. If the clinical Cmax for an agent had not been determined, the highest concentration tested was 10 microM.
Cell Lines. The patient-derived cancer cell (PDC) lines: 292921-168-R-J2-PDC, K24384-001-R-PDC, and 521955-158-R2-J5-PDC pancreatic carcinomas, 556581-035-R-J1 ovarian carcinoma, 324938-238-R-J1-PDC, 855422-203-R-J1-PDC and 883617-216-R-J1-PDC urothelial bladder carcinomas, 743489-274-T-PDC renal cell carcinoma, 138582-R-J1 Merkel cell tumor, K60290-347-R-J1 and K57222-313-R-J1-PDC glioblastomas, 653999-131-R-J2-PDC, LG0703-F948-PDC, and 349418-098-R-PDC non-small cell lung carcinomas, 885512-296-R-J2-PDC, 171881-019-R-J1-PDC breast carcinomas and 186277-243-T-J2-PDC and 233499-124-R-J2-PDC colon carcinomas were obtained from the NCI Patient-Derived Models Repository (PDMR, https://pdmr.cancer.gov). The established cell lines NCI/ADR-RES (RRID:CVCL_14520 and OVCAR-5 (RRID:CVCL_1628) ovarian carcinomas, 786-O (RRID:CVCL_1051) and A498 (RRID:CVCL_A498) renal cell carcinoma, NCI-H211 (ATCC, cat. CRL-5824; RRID:CVCL_1529), NCI-H196 (ATCC, cat. CRL-5823, RRID:CVCL_1509), SW 1271 (ATCC, cat. CRL-2177, RRID:CVCL_1716) and NCI-H1876 (ATCC, cat. CRL-5902, RRID:CVCL_1503) small cell lung carcinomas, MDA-MB-231 (RRID:CVCL_0062) and MDA-MB-468 (RRID:CVCL_0419)breast carcinomas (10-12). Pooled donor human umbilical vein endothelial cells (HUVEC, Lonza, cat. CC-2519) and human mesenchymal stem cells (hMSC, Lonza, cat. PT-2501) were purchased from Lonza (Walkersville, MD).
Cell Culture. All cells were maintained in an incubator at 37 degrees C and 5% CO2 with 95% humidity. The PDC lines were cultured according to standard operating procedures established by the NCI PDMR (https://pdmr.cancer.gov). Briefly all PDCs were thawed and cultured in Matrigel-coated flasks prepared with a working solution of 1X Ham's F-12 nutrient mix, without supplementation (Invitrogen, Waltham, MA, cat. 11765054), 100 U/mL penicillin-streptomycin (Invitrogen, cat. 15140122), and 2.5% Matrigel (Corning Inc., Corning, NY, cat. 354248) for the first three passages. […]

[1] = second compound 0.1 µM, first compound 0.0316 µM
[2] = second compound 0.1 µM, first compound 0.1 µM
[3] = second compound 0.1 µM, first compound 0.316 µM
[4] = second compound 0.1 µM, first compound 1 µM
[5] = second compound 0.1 µM, first compound 3.16 µM
[6] = second compound 0.1 µM, first compound 10 µM
[7] = second compound 0.316 µM, first compound 0.0316 µM
[8] = second compound 0.316 µM, first compound 0.1 µM
[9] = second compound 0.316 µM, first compound 0.316 µM
[10] = second compound 0.316 µM, first compound 1 µM
[11] = second compound 0.316 µM, first compound 3.16 µM
[12] = second compound 0.316 µM, first compound 10 µM
[13] = second compound 1 µM, first compound 0.0316 µM
[14] = second compound 1 µM, first compound 0.1 µM
[15] = second compound 1 µM, first compound 0.316 µM
[16] = second compound 1 µM, first compound 1 µM
[17] = second compound 1 µM, first compound 3.16 µM
[18] = second compound 1 µM, first compound 10 µM
[19] = second compound 3.16 µM, first compound 0.0316 µM
[20] = second compound 3.16 µM, first compound 0.1 µM
[21] = second compound 3.16 µM, first compound 0.316 µM
[22] = second compound 3.16 µM, first compound 1 µM
[23] = second compound 3.16 µM, first compound 3.16 µM
[24] = second compound 3.16 µM, first compound 10 µM
[25] = second compound 10 µM, first compound 0.0316 µM
[26] = second compound 10 µM, first compound 0.1 µM
[27] = second compound 10 µM, first compound 0.316 µM
[28] = second compound 10 µM, first compound 1 µM
[29] = second compound 10 µM, first compound 3.16 µM
[30] = second compound 10 µM, first compound 10 µM
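Note: spheroids exposed to agents for seven days before readout.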

CC1(C)CCC(CN2CCN(c3ccc(C(=O)NS(=O)(=O)c4ccc(NCC5CCOCC5)c([N+](=O)[O-])c4)c(Oc4cnc5[nH]ccc5c4)c3)CC2)=C(c2ccc(Cl)cc2)C1 + NC1CCC(NC2CC2c2ccccc2)CC1
IC50 (second compound 0.1 µM): 9.33 µM
IC50 (second compound 0.316 µM): 8.46 µM
IC50 (second compound 1 µM): 8.73 µM
IC50 (second compound 3.16 µM): 7.79 µM
IC50 (second compound 10 µM): > 10 µM
viability, T/C [1]: 93.5%
viability, T/C [2]: 82.4%
viability, T/C [3]: 86.9%
viability, T/C [4]: 100%
viability, T/C [5]: 94.8%
viability, T/C [6]: 47.3%
viability, T/C [7]: 76.8%
viability, T/C [8]: 89.7%
viability, T/C [9]: 97.7%
viability, T/C [10]: 92%
viability, T/C [11]: 92.2%
viability, T/C [12]: 43.2%
viability, T/C [13]: 77%
viability, T/C [14]: 83.4%
viability, T/C [15]: 97.2%
viability, T/C [16]: 96.5%
viability, T/C [17]: 73.7%
viability, T/C [18]: 46.8%
viability, T/C [19]: 97.9%
viability, T/C [20]: 88.1%
viability, T/C [21]: 102%
viability, T/C [22]: 94.2%
viability, T/C [23]: 74.5%
viability, T/C [24]: 43.2%
viability, T/C [25]: 89%
viability, T/C [26]: 84.2%
viability, T/C [27]: 87.4%
viability, T/C [28]: 87.3%
viability, T/C [29]: 78.1%
viability, T/C [30]: 50%

O=C(C=Cc1cccc(S(=O)(=O)Nc2ccccc2)c1)NO + NC1CC1c1ccc(-c2cccc(O)c2)cc1
IC50 (second compound 0.1 µM): > 3 µM
IC50 (second compound 0.316 µM): 0.296 µM
IC50 (second compound 1 µM): 0.293 µM
IC50 (second compound 3.16 µM): 0.294 µM
IC50 (second compound 10 µM): 0.265 µM
viability, T/C (second compound 0.1 µM, first compound 0.00949 µM): 99.8%
viability, T/C (second compound 0.1 µM, first compound 0.03 µM): 109%
viability, T/C (second compound 0.1 µM, first compound 0.0949 µM): 88.8%
viability, T/C (second compound 0.1 µM, first compound 0.3 µM): 48.7%
viability, T/C (second compound 0.1 µM, first compound 0.949 µM): 8.83%
viability, T/C (second compound 0.1 µM, first compound 3 µM): 99.3%
viability, T/C (second compound 0.316 µM, first compound 0.00949 µM): 92.8%
viability, T/C (second compound 0.316 µM, first compound 0.03 µM): 99%
viability, T/C (second compound 0.316 µM, first compound 0.0949 µM): 87.9%
viability, T/C (second compound 0.316 µM, first compound 0.3 µM): 45.2%
viability, T/C (second compound 0.316 µM, first compound 0.949 µM): 9.89%
viability, T/C (second compound 0.316 µM, first compound 3 µM): 93.6%
viability, T/C (second compound 1 µM, first compound 0.00949 µM): 78.8%
viability, T/C (second compound 1 µM, first compound 0.03 µM): 94.4%
viability, T/C (second compound 1 µM, first compound 0.0949 µM): 92.4%
viability, T/C (second compound 1 µM, first compound 0.3 µM): 49.1%
viability, T/C (second compound 1 µM, first compound 0.949 µM): 8.18%
viability, T/C (second compound 1 µM, first compound 3 µM): 89%
viability, T/C (second compound 3.16 µM, first compound 0.00949 µM): 88.2%
viability, T/C (second compound 3.16 µM, first compound 0.03 µM): 101%
viability, T/C (second compound 3.16 µM, first compound 0.0949 µM): 89.8%
viability, T/C (second compound 3.16 µM, first compound 0.3 µM): 45.8%
viability, T/C (second compound 3.16 µM, first compound 0.949 µM): 7.35%
viability, T/C (second compound 3.16 µM, first compound 3 µM): 94.9%
viability, T/C (second compound 10 µM, first compound 0.00949 µM): 83.5%
viability, T/C (second compound 10 µM, first compound 0.03 µM): 88.6%
viability, T/C (second compound 10 µM, first compound 0.0949 µM): 83.3%
viability, T/C (second compound 10 µM, first compound 0.3 µM): 46%
viability, T/C (second compound 10 µM, first compound 0.949 µM): 9.36%
viability, T/C (second compound 10 µM, first compound 3 µM): 82.4%

O=C(c1cc(Cc2n[nH]c(=O)c3ccccc23)ccc1F)N1CCN(C(=O)C2CC2)CC1 + NC1CC1c1ccc(-c2cccc(O)c2)cc1
IC50 (second compound 0.1 µM): > 10 µM
IC50 (second compound 0.316 µM): > 10 µM
IC50 (second compound 1 µM): > 10 µM
IC50 (second compound 3.16 µM): > 10 µM
IC50 (second compound 10 µM): > 10 µM
viability, T/C [1]: 102%
viability, T/C [2]: 106%
viability, T/C [3]: 95.1%
viability, T/C [4]: 89.1%
viability, T/C [5]: 76.5%
viability, T/C [6]: 66.1%
viability, T/C [7]: 93.8%
viability, T/C [8]: 90.7%
viability, T/C [9]: 82.6%
viability, T/C [10]: 72%
viability, T/C [11]: 59.9%
viability, T/C [12]: 65.4%
viability, T/C [13]: 86.1%
viability, T/C [14]: 80.4%
viability, T/C [15]: 90.8%
viability, T/C [16]: 64.3%
viability, T/C [17]: 75.3%
viability, T/C [18]: 63.5%
viability, T/C [19]: 78.5%
viability, T/C [20]: 87.2%
viability, T/C [21]: 87%
viability, T/C [22]: 82.5%
viability, T/C [23]: 71.4%
viability, T/C [24]: 64.6%
viability, T/C [25]: 92.8%
viability, T/C [26]: 79.7%
viability, T/C [27]: 87.9%
viability, T/C [28]: 78.3%
viability, T/C [29]: 71.7%
viability, T/C [30]: 58.5%
